# Results: ChEMBL document CHEMBL5154816, “Structure-Based Discovery and Optimization of Furo[3,2-c]pyridin-4(5H)-one Derivatives as Potent and Second Bromodomain (BD2)-Selective Bromo and Extra Terminal Domain (BET) Inhibitors” (J Med Chem, 2022)
# Key:
# [1] = target: Bromodomain-containing protein 4 (Homo sapiens, UniProt O60885); assay: Inhibition of C-terminal His6-tagged BRD4 BD1 (unknown origin) using H-YSGRGK(Ac)GGK(Ac)GLGK(Ac)-GGAK(Ac)RHRK-Biotin-OH as substrate incubated for 1 hrs by HTRF assay
# [2] = target: T1, Bromodomain-containing protein 7 (Homo sapiens) (UniProt Q9NPI1); assay: Binding affinity to His6-fused BRD7 (unknown origin) assessed as change in melting temperature at 100 uM incubated for 30 mins by thermal shift assay
# T1 sequence (whole entry): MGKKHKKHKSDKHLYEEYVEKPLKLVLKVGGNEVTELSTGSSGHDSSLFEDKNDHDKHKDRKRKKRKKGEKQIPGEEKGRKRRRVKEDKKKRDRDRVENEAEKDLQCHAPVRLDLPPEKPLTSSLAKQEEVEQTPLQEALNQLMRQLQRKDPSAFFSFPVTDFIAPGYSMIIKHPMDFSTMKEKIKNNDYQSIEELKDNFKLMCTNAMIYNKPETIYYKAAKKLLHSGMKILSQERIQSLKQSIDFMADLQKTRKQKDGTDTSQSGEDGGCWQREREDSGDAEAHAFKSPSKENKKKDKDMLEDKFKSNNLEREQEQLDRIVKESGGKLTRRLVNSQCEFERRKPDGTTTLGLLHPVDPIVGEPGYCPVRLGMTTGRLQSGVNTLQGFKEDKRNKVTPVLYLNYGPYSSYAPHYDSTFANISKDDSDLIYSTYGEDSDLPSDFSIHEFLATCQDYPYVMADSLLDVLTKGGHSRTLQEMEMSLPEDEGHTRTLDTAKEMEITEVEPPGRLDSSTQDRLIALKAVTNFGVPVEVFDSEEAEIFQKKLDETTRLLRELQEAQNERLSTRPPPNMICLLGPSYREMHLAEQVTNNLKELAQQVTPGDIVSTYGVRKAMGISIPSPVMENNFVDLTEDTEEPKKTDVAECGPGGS
# [3] = target: Bromodomain adjacent to zinc finger domain protein 2B (Homo sapiens) (UniProt Q9UIF8); assay: Binding affinity to BAZ2B (unknown origin) assessed as change in melting temperature at 100 uM incubated for 30 mins by thermal shift assay
# [4] = target: T2, Peregrin (Homo sapiens) (UniProt P55201); assay: Binding affinity to BRPF1 (unknown origin) assessed as change in melting temperature at 100 uM incubated for 30 mins by thermal shift assay
# T2 sequence (whole entry): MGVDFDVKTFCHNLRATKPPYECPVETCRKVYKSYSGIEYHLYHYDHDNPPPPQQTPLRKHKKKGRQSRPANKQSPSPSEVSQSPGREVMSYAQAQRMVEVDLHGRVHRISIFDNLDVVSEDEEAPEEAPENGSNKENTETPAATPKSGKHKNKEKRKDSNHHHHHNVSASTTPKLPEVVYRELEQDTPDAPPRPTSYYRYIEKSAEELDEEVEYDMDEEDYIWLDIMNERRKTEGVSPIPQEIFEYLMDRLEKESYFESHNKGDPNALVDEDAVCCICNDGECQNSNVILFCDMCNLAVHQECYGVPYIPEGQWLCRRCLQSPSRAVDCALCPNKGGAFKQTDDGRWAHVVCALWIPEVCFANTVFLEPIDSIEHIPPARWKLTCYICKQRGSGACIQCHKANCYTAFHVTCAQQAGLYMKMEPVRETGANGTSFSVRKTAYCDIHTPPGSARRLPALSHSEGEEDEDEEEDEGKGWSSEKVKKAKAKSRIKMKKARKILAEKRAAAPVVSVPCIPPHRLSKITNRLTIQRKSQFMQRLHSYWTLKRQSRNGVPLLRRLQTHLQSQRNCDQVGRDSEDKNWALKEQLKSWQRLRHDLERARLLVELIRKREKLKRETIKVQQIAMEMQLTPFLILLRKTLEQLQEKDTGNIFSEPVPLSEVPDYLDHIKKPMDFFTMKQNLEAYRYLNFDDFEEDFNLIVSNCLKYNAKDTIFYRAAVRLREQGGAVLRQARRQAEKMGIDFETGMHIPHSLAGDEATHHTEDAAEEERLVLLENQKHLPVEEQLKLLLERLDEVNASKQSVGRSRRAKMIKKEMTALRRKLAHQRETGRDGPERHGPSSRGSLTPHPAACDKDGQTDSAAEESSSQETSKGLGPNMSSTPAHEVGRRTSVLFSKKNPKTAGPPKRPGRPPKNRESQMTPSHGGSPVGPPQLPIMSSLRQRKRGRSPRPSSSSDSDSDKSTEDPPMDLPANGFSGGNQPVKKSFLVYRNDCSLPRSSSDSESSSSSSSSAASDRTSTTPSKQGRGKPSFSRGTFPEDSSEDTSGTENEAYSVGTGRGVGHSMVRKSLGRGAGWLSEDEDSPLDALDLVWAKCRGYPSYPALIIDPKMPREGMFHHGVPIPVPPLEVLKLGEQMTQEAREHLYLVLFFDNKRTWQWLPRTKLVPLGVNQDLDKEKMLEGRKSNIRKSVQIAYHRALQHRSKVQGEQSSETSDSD
# Chain of Bromodomain adjacent to zinc finger domain protein 2B (Homo sapiens) (Q9UIF8 whole entry, the tested form may be a part): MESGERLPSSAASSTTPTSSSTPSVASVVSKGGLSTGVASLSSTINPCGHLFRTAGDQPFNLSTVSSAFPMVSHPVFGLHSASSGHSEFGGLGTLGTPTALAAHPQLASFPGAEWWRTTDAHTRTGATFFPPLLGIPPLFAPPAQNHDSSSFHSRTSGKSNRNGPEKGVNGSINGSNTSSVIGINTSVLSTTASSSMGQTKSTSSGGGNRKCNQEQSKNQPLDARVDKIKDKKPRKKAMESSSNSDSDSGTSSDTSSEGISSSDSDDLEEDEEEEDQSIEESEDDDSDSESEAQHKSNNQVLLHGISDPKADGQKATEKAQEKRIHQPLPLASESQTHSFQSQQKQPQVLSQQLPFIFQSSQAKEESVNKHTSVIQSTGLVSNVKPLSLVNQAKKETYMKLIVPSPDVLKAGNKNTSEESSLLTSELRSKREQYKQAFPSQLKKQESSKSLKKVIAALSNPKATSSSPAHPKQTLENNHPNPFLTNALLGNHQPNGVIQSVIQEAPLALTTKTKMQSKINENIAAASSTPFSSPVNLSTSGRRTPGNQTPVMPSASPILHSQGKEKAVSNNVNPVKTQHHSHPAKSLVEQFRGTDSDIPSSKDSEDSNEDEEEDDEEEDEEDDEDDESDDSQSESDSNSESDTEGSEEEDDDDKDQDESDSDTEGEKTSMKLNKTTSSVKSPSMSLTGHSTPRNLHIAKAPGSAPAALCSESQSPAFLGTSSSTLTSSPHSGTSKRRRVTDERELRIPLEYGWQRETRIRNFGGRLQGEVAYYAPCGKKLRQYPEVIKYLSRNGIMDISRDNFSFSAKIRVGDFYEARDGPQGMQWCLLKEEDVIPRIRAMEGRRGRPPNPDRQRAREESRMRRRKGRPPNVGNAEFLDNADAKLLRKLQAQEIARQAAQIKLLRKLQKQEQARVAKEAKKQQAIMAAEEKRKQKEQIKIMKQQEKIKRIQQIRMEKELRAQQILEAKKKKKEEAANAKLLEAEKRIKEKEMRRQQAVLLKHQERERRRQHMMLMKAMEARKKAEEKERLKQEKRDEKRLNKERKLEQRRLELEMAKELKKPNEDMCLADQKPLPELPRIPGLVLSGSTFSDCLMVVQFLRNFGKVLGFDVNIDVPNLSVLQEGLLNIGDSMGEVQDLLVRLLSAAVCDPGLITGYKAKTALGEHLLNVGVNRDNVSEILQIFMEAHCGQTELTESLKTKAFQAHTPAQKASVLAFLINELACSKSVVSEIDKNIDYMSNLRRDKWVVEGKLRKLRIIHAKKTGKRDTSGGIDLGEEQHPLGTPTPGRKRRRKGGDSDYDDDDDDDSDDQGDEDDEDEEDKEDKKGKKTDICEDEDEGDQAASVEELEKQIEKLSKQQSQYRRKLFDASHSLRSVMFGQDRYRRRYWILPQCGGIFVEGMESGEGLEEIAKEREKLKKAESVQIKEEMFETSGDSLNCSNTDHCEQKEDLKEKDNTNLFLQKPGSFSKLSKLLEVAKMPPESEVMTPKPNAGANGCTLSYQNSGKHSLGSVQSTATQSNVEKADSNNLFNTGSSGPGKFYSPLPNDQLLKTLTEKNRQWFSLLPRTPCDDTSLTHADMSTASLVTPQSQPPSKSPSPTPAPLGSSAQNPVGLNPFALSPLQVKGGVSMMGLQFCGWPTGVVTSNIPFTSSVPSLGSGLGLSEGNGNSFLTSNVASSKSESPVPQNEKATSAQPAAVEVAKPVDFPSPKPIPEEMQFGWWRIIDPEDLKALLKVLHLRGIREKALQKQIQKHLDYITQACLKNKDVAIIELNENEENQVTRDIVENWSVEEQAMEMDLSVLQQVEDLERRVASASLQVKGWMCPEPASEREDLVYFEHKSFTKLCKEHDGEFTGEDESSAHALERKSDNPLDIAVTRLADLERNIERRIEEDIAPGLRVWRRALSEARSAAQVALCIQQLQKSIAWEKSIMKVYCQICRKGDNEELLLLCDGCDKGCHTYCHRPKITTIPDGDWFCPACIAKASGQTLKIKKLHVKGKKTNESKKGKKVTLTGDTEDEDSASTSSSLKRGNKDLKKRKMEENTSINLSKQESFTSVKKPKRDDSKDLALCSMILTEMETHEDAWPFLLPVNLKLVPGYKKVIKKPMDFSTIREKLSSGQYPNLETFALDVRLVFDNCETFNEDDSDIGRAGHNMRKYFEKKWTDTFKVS
IC50 [1] [nM],ΔTm [2] [°C],ΔTm [3] [°C],ΔTm [4] [°C],Compound
162,0,-0.75,-2,Cc1cc(F)cc(C)c1Oc1ccc(C(C)(C)O)cc1-c1cn(C)c(=O)c2cc(-c3cnc(C4CC4)[nH]3)oc12
153,0.25,-1,-1.5,Cc1cc(F)cc(C)c1Oc1ccc(C(C)(C)O)cc1-c1cn(C)c(=O)c2cc(-c3cnc(C4CCC4)[nH]3)oc12
–,0.25,-0.25,-1.5,Cc1cc(F)cc(C)c1Oc1ccc(C(C)(C)O)cc1-c1cn(C)c(=O)c2cc(-c3cnc(C4CCCC4)[nH]3)oc12
326,0.25,-1,-1.25,Cc1cc(F)cc(C)c1Oc1ccc(C(C)(C)O)cc1-c1cn(C)c(=O)c2cc(-c3cnc(C4CCCCC4)[nH]3)oc12
